Data on 16 compounds can be found in patent US9795140B2, “Molecules having pesticidal utility, and intermediates, compositions, and processes, related thereto” (priority 2015, dated 2017).

What all share (format): in vivo
Series [1] concerns Cabbage Looper (Trichoplusia ni, TRIPNI). Put plainly: Bioassay on Cabbage Looper (CL), 128-well diet tray assay. To be noted: 168 h, 50 μg/cm^2 on artificial diet, second instar larvae, 25° C., five to seven days, average of eight wells, read-out: CL % Control (or Mortality) rating. An outline of the steps:
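Second-instar T. ni larvae (one to five per well) were placed on artificial diet treated with 50 μg/cm^2 compound, applied in 90:10 acetone-water and dried. Trays were held five to seven days at 25 °C under 14:10 light-dark. Percent mortality per well was averaged over eight wells.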

Series [2] deals with Green Peach Aphid (Myzus persicae, MYZUPE). Put plainly: Bioassay on Green Peach Aphid (GPA), foliar spray on cabbage seedlings. The note with it: 72 h, 200 ppm spray on infested cabbage seedlings, three days, Abbott corrected % control, read-out: GPA % Control (or Mortality) rating. Here is the method: Certain molecules disclosed in this document were tested against GPA using procedures described in the following example. In the reporting of the results, the “GPA & YFM Rating Table” was used (See Table Section).
Cabbage seedlings grown in 3-inch pots, with 2-3 small (3-5 cm) true leaves, were used as test substrate. The seedlings were infested with 20-50 GPA (wingless adult and nymph stages) one day prior to chemical application. Four pots with individual seedlings were used for each treatment. Test molecules (2 mg) were dissolved in 2 mL of acetone/methanol (1:1) solvent, forming stock solutions of 1000 ppm test molecule. The stock solutions were diluted 5× with 0.025% Tween 20 in water to obtain the solution at 200 ppm test molecule. A hand-held aspirator-type sprayer was used for spraying a solution to both sides of […] leaves until runoff. Reference plants (solvent check) were sprayed with the diluent only containing 20% by volume of acetone/methanol (1:1) solvent. Treated plants were held in a holding room for three days at approximately 25° C. and ambient relative humidity (RH) prior to grading. Evaluation was conducted by counting the number of live aphids per plant under a microscope. Percent control was measured using Abbott's correction formula (W. S. Abbott, “A Method of Computing the Effectiveness of an Insecticide” J. Econ. Entomol. 18 (1925), pp. 265-267) as follows. Corrected % Control=100*(X−Y)/X where X=No. of live aphids on solvent check plants and Y=No. of live aphids on treated plants. The results are indicated in the table entitled “Table ABC: Biological Results” (See Table Section).

Series [3] relates to Beet Armyworm (Spodoptera exigua, LAPHEG). As to the kind of experiment: Bioassay on Beet Armyworm (BAW), 128-well diet tray assay. The note with it: 168 h, 50 μg/cm^2 on artificial diet, second instar larvae, 25° C., five to seven days, average of eight wells, read-out: BAW % Control (or Mortality) rating. An outline of the steps: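 Second instar larvae were exposed to diet treated at 50 μg/cm^2 for five to seven days at 25° C.; mortality was averaged over eight wells.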

For series [4], the system named is Yellow Fever Mosquito (Aedes aegypti, AEDSAE). As to the kind of experiment: Bioassay on Yellow Fever Mosquito (YFM) larvae, 96-well plate. The note with it: about 1 day-old larvae, room temperature, 3 days, scored on mortality. The method, boiled down:
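Aedes aegypti larvae (about 1 day old) in liver-powder water were added to plates dispensed from DMSO master plates (4000 ppm stock) diluted with 90:10 water/acetone; six replicate plates per master. Lidded plates were held at room temperature for 3 days, then each well was scored for mortality.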

In general, mortality refers to the percentage killed.

`COc1ccc(CNC(=O)c2cc(NC(=O)[C@H]3[C@H](c4cc(Cl)cc(Cl)c4)C3(Cl)Cl)ccc2Cl)c(OC)c1` (relative stereo) [F34, trans-2-Chloro-5-(2,2-dichloro-3-(3,5-dichlorophenyl)cyclopropane-1-carboxamido)-N-(2,4-dimethoxybenzyl)benzamide]: the mortality at 50 µg/cm2 in series [1] and in series [3] was 50 to 100% throughout. In series [2], the mortality at 200 ppm is 0%. The “YFM % Control (or Mortality) rating” value in series [4] is “A (80-100)”.
On to `O=C(NCC1CC1)c1cc(NC(=O)[C@H]2[C@H](c3cc(Cl)cc(Cl)c3)C2(Cl)Cl)ccc1Cl` (relative stereo) [F35, trans-2-Chloro-N-(cyclopropylmethyl)-5-(2,2-dichloro-3-(3,5-dichlorophenyl)cyclopropane-1-carboxamido)benzamide], for which the mortality at 50 µg/cm2 in series [1] and in series [3] was 50 to 100% in each case. The mortality at 200 ppm in series [2] was in the range of 80 to 100%. Further, in series [4], the “YFM % Control (or Mortality) rating” value is “A (80-100)”.
For `N#CCCNC(=O)c1cc(NC(=O)[C@H]2[C@H](c3cc(Cl)cc(Cl)c3)C2(Cl)Cl)ccc1Cl` (relative stereo) [F37, trans-2-Chloro-N-(2-cyanoethyl)-5-(2,2-dichloro-3-(3,5-dichlorophenyl)cyclopropane-1-carboxamido)benzamide], the mortality at 50 µg/cm2 in series [1] and in series [3] was 50 to 100% in each case. For the same compound, in series [2], the mortality at 200 ppm is 0 to 80%. Also, in series [4], the “YFM % Control (or Mortality) rating” value is “A (80-100)”.
Regarding `N#CCCCNC(=O)c1cc(NC(=O)[C@H]2[C@H](c3cc(Cl)cc(Cl)c3)C2(Cl)Cl)ccc1Cl` (relative stereo) [F38, trans-2-Chloro-N-(3-cyanopropyl)-5-(2,2-dichloro-3-(3,5-dichlorophenyl)cyclopropane-1-carboxamido)benzamide], the mortality at 50 µg/cm2 in series [1] and in series [3] was 50 to 100% throughout. In addition, the mortality at 200 ppm in series [2] was in the range of 80 to 100%. For the same compound, in series [4], the “YFM % Control (or Mortality) rating” value is on record as “A (80-100)”.
In the case of `O=C(NCCCOCC(F)(F)F)c1cc(NC(=O)[C@H]2[C@H](c3cc(Cl)cc(Cl)c3)C2(Cl)Cl)ccc1Cl` (relative stereo) [F39, trans-2-Chloro-5-(2,2-dichloro-3-(3,5-dichlorophenyl)cyclopropane-1-carboxamido)-N-(3-(2,2,2-trifluoroethoxy)propyl)benzamide], the mortality at 50 µg/cm2 in series [1] and in series [3] was 50 to 100% throughout. Further, the mortality at 200 ppm in series [2] lay within 80 to 100%. Further, in series [4], the “YFM % Control (or Mortality) rating” value is on record as “A (80-100)”.
As to `O=C(NCCC(F)(F)F)c1cc(NC(=O)[C@H]2[C@H](c3cc(Cl)cc(Cl)c3)C2(Cl)Cl)ccc1Cl` (relative stereo) [F40, trans-2-Chloro-5-(2,2-dichloro-3-(3,5-dichlorophenyl)cyclopropane-1-carboxamido)-N-(3,3,3-trifluoropropyl)benzamide], the mortality at 50 µg/cm2 in series [1] and in series [3] was 50 to 100% throughout. Also, in series [2], the mortality at 200 ppm was in the range of 80 to 100%. Besides, the “YFM % Control (or Mortality) rating” value in series [4] is “A (80-100)”.
For `O=C(NCc1ccc(C(F)(F)F)cc1)c1cc(NC(=O)[C@H]2[C@H](c3cc(Cl)cc(Cl)c3)C2(Cl)Cl)ccc1Cl` (relative stereo) [F41, trans-2-Chloro-5-(2,2-dichloro-3-(3,5-dichlorophenyl)cyclopropane-1-carboxamido)-N-(4-(trifluoromethyl)benzyl)benzamide], the mortality at 50 µg/cm2 in series [1] and in series [3] was 50 to 100% throughout. Besides, the mortality at 200 ppm in series [2] amounted to 0%. For the same compound, the “YFM % Control (or Mortality) rating” value in series [4] was “A (80-100)”.
As for `CC(C)(CS(C)(=O)=O)NC(=O)c1cc(NC(=O)[C@H]2[C@H](c3cc(Cl)cc(Cl)c3)C2(Cl)Cl)ccc1Cl` (relative stereo) [F42, trans-2-Chloro-5-(2,2-dichloro-3-(3,5-dichlorophenyl)cyclopropane-1-carboxamido)-N-(2-methyl-1-(methylsulfonyl)propan-2-yl)benzamide], the mortality at 50 µg/cm2 in series [1] and in series [3] was 50 to 100% each time. In addition, in series [2], the mortality at 200 ppm was in the range of 0 to 80%. The “YFM % Control (or Mortality) rating” value in series [4] is given as “A (80-100)”.
With `O=C(NCCCF)c1cc(NC(=O)[C@H]2[C@H](c3cc(Cl)cc(Cl)c3)C2(Cl)Cl)ccc1Cl` (relative stereo) [F44, trans-2-Chloro-5-(2,2-dichloro-3-(3,5-dichlorophenyl)cyclopropane-1-carboxamido)-N-(3-fluoropropyl)benzamide], the mortality at 50 µg/cm2 in series [1] and in series [3] was 50 to 100% each time. In addition, the mortality at 200 ppm in series [2] lay within 80 to 100%. In addition, in series [4], the “YFM % Control (or Mortality) rating” value is listed as “A (80-100)”.
With `CCCCNC(=O)c1cc(NC(=O)[C@H]2[C@H](c3cc(Cl)cc(Cl)c3)C2(Cl)Cl)ccc1Cl` (relative stereo) [F45, trans-N-Butyl-2-chloro-5-(2,2-dichloro-3-(3,5-dichlorophenyl)cyclopropane-1-carboxamido)benzamide], the mortality at 50 µg/cm2 in series [1] and in series [3] was 50 to 100% throughout. For the same compound, the mortality at 200 ppm in series [2] was in the range of 80 to 100%. The “YFM % Control (or Mortality) rating” value in series [4] is “A (80-100)”.
For `CCNC(=O)c1cc(NC(=O)[C@H]2[C@H](c3cc(Cl)cc(Cl)c3)C2(Cl)Cl)ccc1Cl` (relative stereo) [F46, trans-2-Chloro-5-(2,2-dichloro-3-(3,5-dichlorophenyl)cyclopropane-1-carboxamido)-N-ethylbenzamide], the mortality at 50 µg/cm2 in series [1] and in series [3] was 50 to 100% throughout. The mortality at 200 ppm in series [2] lay in the range of 80 to 100%. Moreover, the “YFM % Control (or Mortality) rating” value in series [4] is “A (80-100)”.
As to `C#CCNC(=O)c1cc(NC(=O)[C@H]2[C@H](c3cc(Cl)cc(Cl)c3)C2(Cl)Cl)ccc1Cl` (relative stereo) [F47, trans-2-Chloro-5-(2,2-dichloro-3-(3,5-dichlorophenyl)cyclopropane-1-carboxamido)-N-(prop-2-yn-1-yl)benzamide], the mortality at 50 µg/cm2 in series [1] and in series [3] was 50 to 100% each time. The mortality at 200 ppm in series [2] lay within 80 to 100%. For the same compound, the “YFM % Control (or Mortality) rating” value in series [4] is listed as “A (80-100)”.
As for `O=C(NCC(F)F)c1cc(NC(=O)[C@H]2[C@H](c3cc(Cl)cc(Cl)c3)C2(Cl)Cl)ccc1Cl` (relative stereo) [F48, trans-2-Chloro-5-(2,2-dichloro-3-(3,5-dichlorophenyl)cyclopropane-1-carboxamido)-N-(2,2-difluoroethyl)benzamide], the mortality at 50 µg/cm2 in series [1] and in series [3] was 50 to 100% each time. Further, in series [2], the mortality at 200 ppm was in the range of 80 to 100%. Moreover, the “YFM % Control (or Mortality) rating” value in series [4] is recorded as “B (More than 0-Less than 80)”.
For the compound `O=C(NCC(F)(F)C(F)(F)F)c1cc(NC(=O)[C@H]2[C@H](c3cc(Cl)cc(Cl)c3)C2(Cl)Cl)ccc1Cl` (relative stereo) [F49, trans-2-Chloro-5-(2,2-dichloro-3-(3,5-dichlorophenyl)cyclopropane-1-carboxamido)-N-(2,2,3,3,3-pentafluoropropyl)benzamide], the mortality at 50 µg/cm2 in series [1] and in series [3] was 50 to 100% in each case. The mortality at 200 ppm in series [2] lay within 80 to 100%. Besides, in series [4], the “YFM % Control (or Mortality) rating” value is on record as “A (80-100)”.
Take `CC(=O)NCCNC(=O)c1cc(NC(=O)[C@H]2[C@H](c3cc(Cl)cc(Cl)c3)C2(Cl)Cl)ccc1Cl` (relative stereo) [F55, trans-N-(2-Acetamidoethyl)-2-chloro-5-(2,2-dichloro-3-(3,5-dichlorophenyl)cyclopropane-1-carboxamido)benzamide]: the mortality at 50 µg/cm2 in series [1] and in series [3] was 50 to 100% throughout. Besides, in series [2], the mortality at 200 ppm was 80 to 100%. In addition, the “YFM % Control (or Mortality) rating” value in series [4] is given as “B (More than 0-Less than 80)”.
As for `CCCNC(=O)c1cc(NC(=O)[C@H]2[C@H](c3cc(Cl)cc(Cl)c3)C2(Cl)Cl)ccc1Cl` (relative stereo) [F56, trans-2-Chloro-5-(2,2-dichloro-3-(3,5-dichlorophenyl)cyclopropane-1-carboxamido)-N-propylbenzamide], the mortality at 50 µg/cm2 in series [1] and in series [3] was 50 to 100% each time. Also, the mortality at 200 ppm in series [2] is 80 to 100%. Also, the “YFM % Control (or Mortality) rating” value in series [4] is given as “A (80-100)”.
